Tests used:
[1] = target: ligand binding domain of human FXR (Homo sapiens (Human), UniProt Q96RI1); assay: FXR ligand binding assay (LanthaScreen TR-FRET, SRC2-2 peptide recruitment); details: for pEC50: -log EC50, concentration required to produce 50% activation; for Emax: extent of activation relative to GW4064, read-out: % Efficacy
[2] = target: human Farnesoid X receptor ligand-binding domain/Gal4 DNA binding domain chimera (Homo sapiens (Human), UniProt Q96RI1); assay: Cell-based assay of FXR activation (FXR-UAS-bla HEK 293T beta-lactamase reporter); details: cellular FXR beta-lactamase reporter assay; for Emax: HEK-293T, extent of activation relative to GW4064, read-out: % Efficacy; for EC50: FXR-UAS-bla HEK 293T cells, 16 h, pEC50 = -log EC50
Chain of human Farnesoid X receptor ligand-binding domain/Gal4 DNA binding domain chimera (Q96RI1 262-486, change not shown): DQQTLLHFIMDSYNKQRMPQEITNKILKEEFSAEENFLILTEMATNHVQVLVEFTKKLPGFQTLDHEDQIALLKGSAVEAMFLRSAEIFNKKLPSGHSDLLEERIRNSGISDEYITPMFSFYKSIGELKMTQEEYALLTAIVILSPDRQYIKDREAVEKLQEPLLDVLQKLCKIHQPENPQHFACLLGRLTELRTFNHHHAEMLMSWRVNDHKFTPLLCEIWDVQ
Chain of human Farnesoid X receptor ligand-binding domain/Gal4 DNA binding domain chimera (P04386 1-147 partner): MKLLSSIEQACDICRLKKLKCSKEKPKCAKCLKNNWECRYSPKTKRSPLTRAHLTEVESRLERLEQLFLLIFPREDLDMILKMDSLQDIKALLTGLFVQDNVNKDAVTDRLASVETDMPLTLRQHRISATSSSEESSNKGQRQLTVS
In short: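 HEK 293T cells stably expressing a Gal4-fused human FXR LBD and a UAS-driven beta-lactamase reporter were incubated with serially diluted compounds for 16 h at 37 °C in phenol red-free DMEM with 2% charcoal-stripped FBS. CCF4 FRET read-out: excitation 409 nm, emission 447 nm. pEC50 comes from a 3-parameter logistic fit, and efficacy is given as % of GW4064.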

Chain of ligand binding domain of human FXR (Q96RI1 262-486): as the sequence (Q96RI1 262-486, change not shown) above

SMILES	pEC50 [1]	Emax [1] [%]	Emax [2] [%]	EC50 [2] [nM]
O=C(CCc1ccc(N2C[C@@H]3C[C@H]2C[C@H]3OCc2c(-c3c(Cl)cccc3Cl)noc2C2CC2)c(F)c1)OCCN(CCO)CCO [Compound I-163, 2-[bis(2-hydroxyethyl)amino]ethyl 3-{4-[(1S,4S,5R)-5-{[5-cyclopropyl-3-(2,6-dichlorophenyl)-1,2-oxazol-4-yl]methoxy}-2-azabicyclo[2.2.1]heptan-2-yl]-3-fluorophenyl}propanoate]	7.5	154	99	1.26
CS(=O)(=O)NC(=O)CCc1ccc(N2C[C@@H]3C[C@H]2C[C@H]3OCc2c(-c3c(Cl)cccc3Cl)noc2C2CC2)c(F)c1 [Compound I-236, 3-(4-((1S,4S,5R)-5-((5-cyclopropyl-3-(2,6-dichlorophenyl)isoxazol-4-yl)methoxy)-2-azabicyclo[2.2.1]heptan-2-yl)-3-fluorophenyl)-N-(methylsulfonyl)propanamide]	8.4	156	95	2.51
O=C(O)c1ccc(N2C[C@@H]3C[C@H]2C[C@H]3OCc2c(-c3c(Cl)cccc3Cl)noc2C2CC2)cn1 [Compound I-128, 5-[(1S,4S,5R)-5-{[5-cyclopropyl-3-(2,6-dichlorophenyl)-1,2-oxazol-4-yl]methoxy}-2-azabicyclo[2.2.1]heptan-2-yl]pyridine-2-carboxylic Acid]	7.8	110	93	10
CC1(C)CC(S(=O)(=O)NC(=O)c2ccc(N3C(=O)[C@@H]4C[C@H]3C[C@H]4OCc3c(-c4c(Cl)cccc4Cl)noc3C3CC3)cc2)CCO1 (stereo partly drawn) [Compound I-329, 4-[(1S,4R,5R)-5-{[5-cyclopropyl-3-(2,6-dichlorophenyl)-1,2-oxazol-4-yl]methoxy}-3-oxo-2-azabicyclo[2.2.1]heptan-2-yl]-N-[(2,2-dimethyloxan-4-yl)sulfonyl]benzamide]	9	162	117	0.794
O=C(O)c1ccc(N2C(=O)[C@@H]3C[C@H]2C[C@H]3OCc2c(-c3c(Cl)cccc3Cl)noc2C2CC2)cc1F [Compound I-314, 4-[(1S,4R,5R)-5-{[5-cyclopropyl-3-(2,6-dichlorophenyl)-1,2-oxazol-4-yl]methoxy}-3-oxo-2-azabicyclo[2.2.1]heptan-2-yl]-2-fluorobenzoic Acid]	8.4	145	103	2.51
O=C(O)c1cc(F)c2nc(N3C[C@H]4C[C@@H]3[C@H](OC(=O)c3c(-c5c(Cl)cccc5Cl)noc3C3CC3)C4)sc2c1 [Compound I-63, 2-[(1R,4S,6R)-6-[5-cyclopropyl-3-(2,6-dichlorophenyl)-1,2-oxazole-4-carbonyloxy]-2-azabicyclo[2.2.1]heptan-2-yl]-4-fluoro-1,3-benzothiazole-6-carboxylic Acid]	8.7	13		< 31600
O=C(O)c1cnc(N2C[C@@H]3C[C@H]2C[C@H]3OCc2c(-c3c(Cl)cccc3Cl)noc2C2CC2)nc1 [Compound I-145, 2-[(1S,4S,5R)-5-{[5-cyclopropyl-3-(2,6-dichlorophenyl)-1,2-oxazol-4-yl]methoxy}-2-azabicyclo[2.2.1]heptan-2-yl]pyrimidine-5-carboxylic Acid]	8	118	108	63.1
O=C(O)c1ccc(N2C[C@@H]3C[C@H]2C[C@H]3OCc2c(-c3c(Cl)cccc3Cl)noc2C2CC2)c(C2CC2)c1 [Compound I-108, 3-cyclopropyl-4-((1S,4S,5R)-5-((5-cyclopropyl-3-(2,6-dichlorophenyl)isoxazol-4-yl)methoxy)-2-azabicyclo[2.2.1]heptan-2-yl)benzoic acid]	9.1	117	101	3.98
O=C(O)c1cc(F)c2nc(N3C[C@@H]4C[C@H]3C[C@H]4OCc3c(-c4c(Cl)cccc4Cl)noc3C3CC3)sc2c1 [Compound I-12, 2-[(1S,4S,5R)-5-{[5-cyclopropyl-3-(2,6-dichlorophenyl)-1,2-oxazol-4-yl]methoxy}-2-azabicyclo[2.2.1]heptan-2-yl]-4-fluoro-1,3-benzothiazole-6-carboxylic Acid]	9	153	122	0.1
O=S(=O)(O)c1ccc(N2C[C@@H]3C[C@H]2C[C@H]3OCc2c(-c3c(Cl)cccc3Cl)noc2C2CC2)cc1 [Compound I-144, 4-[(1S,4S,5R)-5-{[5-cyclopropyl-3-(2,6-dichlorophenyl)-1,2-oxazol-4-yl]methoxy}-2-azabicyclo[2.2.1]heptan-2-yl]benzene-1-sulfonic Acid]	8.2	128		< 31.6
CCOCCOCCS(=O)(=O)NC(=O)c1ccc(N2C[C@@H]3C[C@H]2C[C@H]3OCc2c(-c3c(Cl)cccc3Cl)noc2C2CC2)c(F)c1 [Compound I-193, 4-((1S,4S,5R)-5-((5-cyclopropyl-3-(2,6-dichlorophenyl)isoxazol-4-yl)methoxy)-2-azabicyclo[2.2.1]heptan-2-yl)-N-((2-(2-ethoxyethoxy)ethyl)sulfonyl)-3-fluorobenzamide]	8.2	138	114	1.58
O=C(NS(=O)(=O)C1CC1)c1ccc(N2C[C@@H]3C[C@H]2C[C@H]3OCc2c(-c3c(Cl)cccc3Cl)noc2C2CC2)cc1 [Compound I-60, N-(cyclopropanesulfonyl)-4-[(1S,4S,5R)-5-[[5-cyclopropyl-3-(2,6-dichlorophenyl)-1,2-oxazol-4-yl]methoxy]-2-azabicyclo[2.2.1]heptan-2-yl]benzamide]	8.2	170	105	0.2
Fc1cc(-c2nn[nH]n2)cc2sc(N3C[C@@H]4C[C@H]3C[C@H]4OCc3c(-c4c(Cl)cccc4Cl)noc3C3CC3)nc12 [Compound I-26, 2-[(1S,4S,5R)-5-{[5-cyclopropyl-3-(2,6-dichlorophenyl)-1,2-oxazol-4-yl]methoxy}-2-azabicyclo[2.2.1]heptan-2-yl]-4-fluoro-6-(2H-1,2,3,4-tetrazol-5-yl)-1,3-benzothiazole]	8.4	137	106	25.1
O=C(O)CCCc1ccc(N2C[C@@H]3C[C@H]2C[C@H]3OCc2c(-c3c(Cl)cccc3Cl)noc2C2CC2)c(F)c1 [Compound I-157, 4-{4-[(1S,4S,5R)-5-{[5-cyclopropyl-3-(2,6-dichlorophenyl)-1,2-oxazol-4-yl]methoxy}-2-azabicyclo[2.2.1]heptan-2-yl]-3-fluorophenyl}butanoic Acid]	8.2	134	100	2.51
O=C(NCCS(=O)(=O)O)c1ccc(N2C[C@@H]3C[C@H]2C[C@H]3OCc2c(-c3c(Cl)cccc3Cl)noc2C2CC2)cc1F [Compound I-168, 2-({4-[(1S,4S,5R)-5-{[5-cyclopropyl-3-(2,6-dichlorophenyl)-1,2-oxazol-4-yl]methoxy}-2-azabicyclo[2.2.1]heptan-2-yl]-2-fluorophenyl}formamido)ethane-1-sulfonic Acid]	8.6	164	107	100
O=C(O)c1cc(C2CC2)c2nc(N3C[C@@H]4C[C@H]3C[C@H]4OCc3c(-c4c(Cl)cccc4Cl)noc3C3CC3)sc2c1 [Compound I-14, 4-cyclopropyl-2-[(1S,4S,5R)-5-{[5-cyclopropyl-3-(2,6-dichlorophenyl)-1,2-oxazol-4-yl]methoxy}-2-azabicyclo[2.2.1]heptan-2-yl]-1,3-benzothiazole-6-carboxylic acid]	8.6	146	111	0.1
NS(=O)(=O)[C@@H]1CCC[C@H]1OC(=O)c1ccc(N2C(=O)[C@@H]3C[C@H]2C[C@H]3OCc2c(-c3c(Cl)cccc3Cl)noc2C2CC2)cc1F [Compound I-347, (1R,2R)-2-sulfamoylcyclopentyl 4-[(1S,4R,5R)-5-{[5-cyclopropyl-3-(2,6-dichlorophenyl)-1,2-oxazol-4-yl]methoxy}-3-oxo-2-azabicyclo[2.2.1]heptan-2-yl]-2-fluorobenzoate]	8.5	203	135	1
CC(C)CCS(=O)(=O)NC(=O)c1ccc(N2C[C@@H]3C[C@H]2C[C@H]3OCc2c(-c3c(Cl)cccc3Cl)noc2C2CC2)c(F)c1 [Compound I-190, 4-((1S,4S,5R)-5-((5-cyclopropyl-3-(2,6-dichlorophenyl)isoxazol-4-yl)methoxy)-2-azabicyclo[2.2.1]heptan-2-yl)-3-fluoro-N-(isopentylsulfonyl)benzamide]	8.4	163	113	0.0631
O=C(O)CCc1ccc(N2C(=O)[C@@H]3C[C@H]2C[C@H]3OCc2c(-c3c(Cl)cccc3Cl)noc2C2CC2)c(F)c1 [Compound I-304, 3-{4-[(1S,4R,5R)-5-{[5-cyclopropyl-3-(2,6-dichlorophenyl)-1,2-oxazol-4-yl]methoxy}-3-oxo-2-azabicyclo[2.2.1]heptan-2-yl]-3-fluorophenyl}propanoic Acid]	6.6	118	107	100
O=C(NS(=O)(=O)C1CC1)c1ccc(N2C[C@@H]3C[C@H]2C[C@H]3OCc2c(C3CCC4(CC3)CC4)noc2C2CC2)cc1 [Compound I-228, 4-((1S,4S,5R)-5-((5-cyclopropyl-3-(spiro[2.5]octan-6-yl)isoxazol-4-yl)methoxy)-2-azabicyclo[2.2.1]heptan-2-yl)-N-(cyclopropylsulfonyl)benzamide]	7	134	105	20
